# Where two headings read alike, the source gives them in different places.
# Tests used:
# [1] = system: human myometrium; assay: Human myometrial contractility in vitro (organ chamber / muscle bath); format: cell-based
# Excerpt: The inventors tested whether a soluble form of progesterone would inhibit human myometrial contractility in vitro (FIG. 7). FIG. 7 is a schematic drawing of the muscle bath that is used to measure uterine contractility in vitro. The system consists of a water jacketed chamber to maintain temperature at 37 degrees and an inner chamber where the tissue is suspended in Krebs'-Ringer solution and bubbled with air. The tissue is connected to a force transducer and the signals from the transducer are amplified, stored and analyzed by a data acquisition system. The inventors examined the direct effects of various tocolytics on uterine contractility with and without progesterone, as it was possible that a tocolytic used with progesterone would produce additive, synergistic or antagonistic action on contractility.
# [2] = cited from earlier work
structure (smiles),measurement,setting,value
"CC(=O)[C@H]1CC[C@H]2[C@@H]3CCC4=CC(=O)CC[C@]4(C)[C@H]3CC[C@]12C [P4, progesterone]",effect on human myometrial contractions,[1]; 10^−4M progesterone,inhibited myometrial contractions
same,contractile inhibition of the combination,"[1]; P4 (10^-5 M) with indomethacin (IND), term, not in labor","increase contractile inhibition, by additive or synergistic actions"
same,contractile inhibition of the combination,"[1]; P4 (10^-5 M) with nifedipine (Nife), term, not in labor","increase contractile inhibition, by additive or synergistic actions"
same,effect on pinacidil inhibition of contractility,"[1]; P4 (10^−5M) with pinacidil (10^−6.5M), term, not in labor",decreases pinacidil inhibition of contractility
same,effect on myometrial contractility,[1]; P4 soluble and crystalline in ETOH,inhibits myometrial contractility
same,half life,[2]; background statement,roughly 32 hours
same,half life,[2]; statement under advantages,about 30 minutes
